In patent publication US12662494B2, “Optically active bridged piperidine derivative” (Sumitomo Pharma Co., Ltd., priority 2018, dated 2026):
Read-outs that look alike come from different tables or passages of the source.

Columns and labels:
[1] = tested on: RS4; 11 cells; assay: Test 2: inhibition of cell proliferation, RS4;11; type: cell-based; settings: for cell proliferation inhibition activity, good (in words) / cell proliferation inhibitory activity, potent (in words): summary of Test 2 table, RS4;11 and MOLM-13; for IC50: Homo sapiens, 168 h, RS4;11 cells, 7 days, PrestoBlue cell viability
Method: (§1) Test 2: Test for Evaluating the Inhibition of Cell Proliferation
(§2) RS4; 11 cells were obtained from American Type Culture Collection (ATCC). The cells were cultured at 37° C. in the presence of 5% CO2 in RPMI 1640 medium containing 10% fetal bovine serum and 1% penicillin/streptomycin. MOLM-13 cells were separately obtained from DSMZ (Deutsche Sammlung von Mikroorganismen und Zellkulturen GmbH). The cells were cultured at 37° C. in the presence of 5% CO2 in RPMI 1640 medium containing […] and 1% penicillin/streptomycin.
(§3) The cells were plated to a 96-well plate in 2000 cells/well, each test compound was added thereto to adjust the final concentration of DMSO to 0.1% of DMSO, and the cells were cultured for 7 days. After the cultivation, the cell viability was calculated with PrestoBlue™ Cell Viability Reagent (Invitrogen, A13261). The IC50 value was calculated from a survival curve, that corresponds to the concentration of the test compound at which the cell proliferation inhibition rate is 50%.

[2] = mouse, in vivo, po, 100 mg/kg
Method: Test 4: Pharmacokinetic Study
(§6) The test compound suspended in 0.5% methylcellulose was orally administered to 7-week-old male NOD. CB17-Prkdcscid/J mouse in a dose of 100 mg/kg. The blood sample was taken from jugular vein without anesthesia over time for 24 hours. The blood sample was centrifuged to obtain plasma. The plasma was pre-treated by methanol extraction method, and then analyzed with an LC-MS/MS to determine the concentration of the test compound. Based on the data from 0 hour after the administration until the time (t) when there was the final detection in the plasma, AUC was calculated by trapezoidal method.

[3] = tested on: HOXA9; assay: Test 3: inhibition of mRNA transcription, HOXA9 in MV4;11 cells; type: cell-based; settings: 20 to 24 hours, fitted with GAPDH
Method: (§4) Test 3: Test for the Inhibition of mRNA Transcription with Test Compounds
(§5) MV4; 11 cells were obtained from American Type Culture Collection (ATCC). The cells were cultured at 37° C. in the presence of 5% CO2 in RPMI 1640 medium containing 10% fetal bovine serum and 1% penicillin/streptomycin. To the MV4; 11 cells was added each test compound to adjust the final concentration to 1 μmol/L, and the cells were cultured at 37° C. in the presence of 5% CO2 for 20 to 24 hours. After the incubation, the total RNA was extracted from the cells with RNeasy™ Mini Kit (QIAGEN, 74106), and CDNA was synthesized with Superscript™ VILO™ CDNA Synthesis Kit (Invitrogen, #11754250). By using TaqMan™ Gene Expression Master Mix (Applied Biosystems, 4369016) and TaqMan™ probe (Applied Biosystems), the expression level of mRNA was quantified from the obtained cDNA with 7900HT (Applied Biosystems). The mRNA expression level of each obtained gene was fitted with the expression level of mRNA of GAPDH.

[4] = target: T1, Menin-MLL binding (His-Menin1-615 and MLL1-172-FLAG) (Homo sapiens, UniProt O00255); assay: Test 1: inhibition of the menin-MLL binding (HTRF); settings: for IC50: His-Menin1-615 30 nmol/L, MLL1-172-FLAG 50 nmol/L; for menin-MLL binding inhibition activity (in words): summary of Test 1 table
T1 construct: Menin1-615 wherein 6× His tag and HA tag are inserted in the N-terminus; HA (N); myc (C)
T1 sequence (O00255 1-615 isoform O00255-1): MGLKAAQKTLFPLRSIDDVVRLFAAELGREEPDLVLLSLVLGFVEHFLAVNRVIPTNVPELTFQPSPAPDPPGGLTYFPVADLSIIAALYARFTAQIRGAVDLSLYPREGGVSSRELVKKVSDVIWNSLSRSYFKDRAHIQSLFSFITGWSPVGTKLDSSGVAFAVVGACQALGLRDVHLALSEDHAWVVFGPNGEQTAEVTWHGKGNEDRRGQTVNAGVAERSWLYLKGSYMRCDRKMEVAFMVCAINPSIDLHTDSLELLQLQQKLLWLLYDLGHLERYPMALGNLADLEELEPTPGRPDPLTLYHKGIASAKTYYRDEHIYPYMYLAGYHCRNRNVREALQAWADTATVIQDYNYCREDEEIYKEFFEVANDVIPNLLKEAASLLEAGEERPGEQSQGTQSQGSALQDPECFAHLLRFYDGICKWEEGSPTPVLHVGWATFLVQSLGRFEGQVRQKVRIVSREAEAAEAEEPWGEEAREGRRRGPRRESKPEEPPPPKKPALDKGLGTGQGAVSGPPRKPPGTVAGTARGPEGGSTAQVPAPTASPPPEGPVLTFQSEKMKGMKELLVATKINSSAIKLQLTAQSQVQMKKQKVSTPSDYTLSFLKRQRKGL
Method: Test 1: Test for Evaluating the Inhibition of the Menin-MLL Binding
Menin1-615 wherein 6× His tag and HA tag are inserted in the N-terminus, and myc tag is inserted in the C-terminus (hereinafter, referred to as His-Menin1-615), was diluted with an assay buffer (25 mmol/L HEPES, 150 mmol/L NaCl, 1 mmol/L dithiothreitol, 0.5% (w/v) Tween 80, 0.3% (w/v) BSA, 0.3% (w/v) skim milk) to adjust the final concentration to 30 nmol/L. The test compounds were also diluted with the assay buffer to adjust each concentration of the test compounds to 0.005 to 5 μmol/L. The prepared His-Menin1-615 and test compounds were added to a light-shielding 384-well low-volume plate (Corning, #4514) in 2 μL/well and […], respectively, and the plate was covered with a lid for light-shielding (Corning, #3935), and incubated at room temperature for 3 hours. After the incubation, MLL1-172 wherein FLAG tag is inserted in the C-terminus (MLL1-172-FLAG), was separately diluted with the assay buffer to adjust the final concentration to 50 nmol/L. The prepared MLL1-172-FLAG was added to the above plate in 2 μL/well, and the plate was covered with a lid for light-shielding and incubated at room temperature for an hour.
Then, anti-6HIS-d2 antibody (cisbio, 61HISDLA) and anti-FLAGM2-K antibody (cisbio, 61FG2KLA) were diluted with an antibody dilution buffer (50 mmol/L Tris, 150 mmol/L NaCl, 800 mmol/L KF, pH 7.4) to adjust the final concentration to 1.4 μg/mL to prepare an antibody mixture. The prepared antibody mixture was added to the above plate in 10 μL/well, and the plate was covered with a lid and incubated at 4° C. for 17 to 24 hours. After the incubation, the signal was detected with RUBYstar (BMG LABTECH).

[5] = Test 4: pharmacokinetic study, oral, mouse; settings: for AUC(0-t): male, NOD.CB17-Prkdcscid/J, plasma, po, 100 mg/kg; for compound-exposure in plasma (in words): summary of Test 4 table, oral 100 mg/kg
Method: Test 4: Pharmacokinetic Study
as §6

[6] = tested on: MOLM-13 cells; assay: Test 2: inhibition of cell proliferation, MOLM-13; type: cell-based; settings: Homo sapiens, 168 h, 7 days, PrestoBlue cell viability
Method: as §1, §2, §3

[7] = tested on: MEIS1; assay: Test 3: inhibition of mRNA transcription, MEIS1 in MV4;11 cells; type: cell-based; settings: for mRNA at 1 μM (% control) MEIS1: MV4;11 cells, 20 to 24 hours, fitted with GAPDH; for mRNA transcription inhibition activity (in words): summary of Test 3 table, MEIS1 and HOXA9, MV4;11 cells, 1 μM
Method: as §4, §5

For [2H]C([2H])=C1C[C@@H]2CC[C@H]1[C@@H](C(=O)N1CCC3(CC1)CN(c1c(C(F)(F)F)cnc4sc(CC(F)(F)F)cc14)C3)N2 [Example 21, [(1S,3S,4R)-5-(^2H2)methylidene-2-azabicyclo[2.2.2]octan-3-yl]{2-[2-(2,2,2-trifluoroethyl)-5-(trifluoromethyl)thieno[2,3-b]pyridin-4-yl]-2,7-diazaspiro[3.5]nonan-7-yl}methanone], the “cell proliferation inhibition activity, good (in words)” value (from here on “cell proliferation inhibition activity”) [1] was “good cell proliferation inhibition activity”, the “cell proliferation inhibitory activity, potent (in words)” value (shortened to “cell proliferation inhibitory activity”) [1] was “potent cell proliferation inhibitory activity” and the AUC(0-t) [2] was 24300 ng·h/mL. The “compound-exposure in plasma (in words)” value [2] was “good compound-exposure in plasma”.
In the case of N#Cc1cnc2sc(CC(F)(F)F)cc2c1N1CC2(CN(C(=O)[C@H]3N[C@H]4CC[C@@H]3[C@H](F)[C@@H]4CC3CC3)C2)C1 [Example 12, 4-{6-[(1S,3S,4S,5R,6R)-6-(cyclopropylmethyl)-5-fluoro-2-azabicyclo[2.2.2]octane-3-carbonyl]-2,6-diazaspiro[3.3]heptan-2-yl}-2-(2,2,2-trifluoroethyl)thieno[2,3-b]pyridine-5-carbonitrile], the “mRNA at 1 μM (% control) HOXA9” value [3] is reported as 42.6 % control, the IC50 [1] is reported as 60 nM and the IC50 [4] is reported as 7.3 nM. The AUC(0-t) [5] was 8970 ng·h/mL, the “compound-exposure in plasma (in words)” value [5] was “good compound-exposure in plasma” and the IC50 [6] was 90 nM. The “mRNA at 1 μM (% control) MEIS1” value [7] was 18.4 % control.
For O=C([C@H]1N[C@H]2CC[C@@H]1[C@H](F)[C@@H]2CC1CC1)N1CC2(C1)CN(c1c(C(F)(F)F)cnc3sc(CC(F)(F)F)cc13)C2 [Example 11, [(1S,3S,4S,5R,6R)-6-(cyclopropylmethyl)-5-fluoro-2-azabicyclo[2.2.2]octan-3-yl]{6-[2-(2,2,2-trifluoroethyl)-5-(trifluoromethyl)thieno[2,3-b]pyridin-4-yl]-2,6-diazaspiro[3.3]heptan-2-yl}methanone], the “mRNA at 1 μM (% control) HOXA9” value [3] was 45.0 % control, the IC50 [1] was 80 nM and the “cell proliferation inhibition activity” value [1] was “good cell proliferation inhibition activity”. For the same compound, the “cell proliferation inhibitory activity” value [1] was “potent cell proliferation inhibitory activity”, the IC50 [4] was 18.8 nM and the “menin-MLL binding inhibition activity (in words)” value [4] was “potent menin-MLL binding inhibition activity”. The AUC(0-t) [5] was 6740 ng·h/mL, the “compound-exposure in plasma (in words)” value [5] was “good compound-exposure in plasma” and the IC50 [6] was 150 nM. For the same compound, the “mRNA at 1 μM (% control) MEIS1” value [7] was 20.6 % control and the “mRNA transcription inhibition activity (in words)” value [7] was “mRNA transcription inhibition activity”.
With O=C([C@H]1N[C@H]2CC[C@@H]1C[C@@H]2CC1CC1)N1CC2(C1)CN(c1c(C(F)(F)F)cnc3sc(CC(F)(F)F)cc13)C2 [Example 1, [(1S,3S,4R,6S)-6-(Cyclopropylmethyl)-2-azabicyclo[2.2.2]octan-3-yl]{6-[2-(2,2,2-trifluoroethyl)-5-(trifluoromethyl)thieno[2,3-b]pyridin-4-yl]-2,6-diazaspiro[3.3]heptan-2-yl}methanone] the “mRNA at 1 μM (% control) HOXA9” value [3] was 55.0 % control, the IC50 [1] was 90 nM and the “cell proliferation inhibition activity” value [1] was “good cell proliferation inhibition activity”. The “cell proliferation inhibitory activity” value [1] was “potent cell proliferation inhibitory activity”, the IC50 [4] was 36.5 nM and the “menin-MLL binding inhibition activity (in words)” value [4] was “potent menin-MLL binding inhibition activity”. The AUC(0-t) [5] was 10300 ng·h/mL, the “compound-exposure in plasma (in words)” value [5] was “good compound-exposure in plasma” and the IC50 [6] was 280 nM. For the same compound, the “mRNA at 1 μM (% control) MEIS1” value [7] was 31.8 % control and the “mRNA transcription inhibition activity (in words)” value [7] was “mRNA transcription inhibition activity”.
For C=C1C[C@@H]2CC[C@H]1[C@@H](C(=O)N1CC3(C1)CN(c1c(C#N)cnc4sc(CC(F)(F)F)cc14)C3)N2 [Example 6, 4-{6-[(1S,3S,4R)-5-methylidene-2-azabicyclo[2.2.2]octane-3-carbonyl]-2,6-diazaspiro[3.3]heptan-2-yl}-2-(2,2,2-trifluoroethyl)thieno[2,3-b]pyridine-5-carbonitrile], the “mRNA at 1 μM (% control) HOXA9” value [3] was 45.9 % control, the IC50 [1] was 90 nM and the IC50 [4] was 9 nM. The IC50 [6] was 200 nM and the “mRNA at 1 μM (% control) MEIS1” value [7] was 27.4 % control.
For [2H]C([2H])=C1C[C@@H]2CC[C@H]1[C@@H](C(=O)N1CCC3(CC1)CN(c1c(C#N)cnc4sc(CC(F)(F)F)cc14)C3)N2 [Example 24, 4-{7-[(1S,3S,4R)-5-(^2H2)methylidene-2-azabicyclo[2.2.2]octane-3-carbonyl]-2,7-diazaspiro[3.5]nonan-2-yl}-2-(2,2,2-trifluoroethyl)thieno[2,3-b]pyridine-5-carbonitrile], the “cell proliferation inhibition activity” value [1] was “good cell proliferation inhibition activity”, the “cell proliferation inhibitory activity” value [1] was “potent cell proliferation inhibitory activity” and the AUC(0-t) [2] was 6970 ng·h/mL. For the same compound, the “compound-exposure in plasma (in words)” value [2] was “good compound-exposure in plasma”.
